# Assay results taken from the supplement of paper PMC10307832.
# What was measured:
# Test in all cases: relative viability (nuclei count vs DMSO), 5 days (fraction); higher = more cells survive
# [1] = compound: O=C(NCCCNc1nc(Nc2cccc(NC(=O)N3CCCC3)c2)ncc1I)c1cccs1 [BX 795] + CC(=O)c1c(C)c2cnc(Nc3ccc(N4CCNCC4)cn3)nc2n(C2CCCC2)c1=O [Palbociclib] (partner 0.5 µM)
# Outline: (§1)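 Each reported value is a median over duplicate plates. It expresses relative viability: treated-well nuclei count divided by vehicle-well nuclei count. Lung cancer cell lines in 1536-well plates were dosed by pin tool a day after seeding, alone with one drug or with a fixed anchor-drug dose plus five library-drug doses (not always all listed) in √10 steps, and nuclei were counted after 5 days.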
# [2] = compound: O=C(NCCCNc1nc(Nc2cccc(NC(=O)N3CCCC3)c2)ncc1I)c1cccs1 [BX 795] + Nc1ncn([C@H]2C[C@H](O)[C@@H](CO)O2)c(=O)n1 [Decitabine] (partner 2 µM)
# Outline: as §1
# [3] = compound: O=C(NCCCNc1nc(Nc2cccc(NC(=O)N3CCCC3)c2)ncc1I)c1cccs1 [BX 795] + COc1cccc2cc(-c3nc([C@H]4CC[C@H](C(=O)O)CC4)n4ncnc(N)c34)[nH]c12 [OSI-027] (partner 0.5 µM)
# Outline: as §1
# [4] = compound: O=C(NCCCNc1nc(Nc2cccc(NC(=O)N3CCCC3)c2)ncc1I)c1cccs1 [BX 795] + CC(C)C[C@H](NC(=O)[C@H](Cc1ccccc1)NC(=O)c1cnccn1)B(O)O [Bortezomib] (partner 0.002 µM)
# Outline: as §1
# [5] = compound: O=C(NCCCNc1nc(Nc2cccc(NC(=O)N3CCCC3)c2)ncc1I)c1cccs1 [BX 795] + CC1(C)CCC(c2ccc(Cl)cc2)=C(CN2CCN(c3ccc(C(=O)NS(=O)(=O)c4ccc(N[C@H](CCN5CCOCC5)CSc5ccccc5)c(S(=O)(=O)C(F)(F)F)c4)cc3)CC2)C1 [Navitoclax] (partner 0.5 µM)
# Outline: as §1
Cell Line,relative viability ([1]; first compound 0.04 µM),relative viability ([1]; first compound 0.4 µM),relative viability ([1]; first compound 1.265 µM),relative viability ([2]; first compound 0.04 µM),relative viability ([2]; first compound 0.4 µM),relative viability ([2]; first compound 1.265 µM),relative viability ([3]; first compound 0.04 µM),relative viability ([3]; first compound 0.1265 µM),relative viability ([3]; first compound 0.4 µM),relative viability ([3]; first compound 1.265 µM),relative viability ([4]; first compound 0.04 µM),relative viability ([4]; first compound 0.1265 µM),relative viability ([4]; first compound 0.4 µM),relative viability ([4]; first compound 1.265 µM),relative viability ([5]; first compound 0.04 µM),relative viability ([5]; first compound 0.1265 µM),relative viability ([5]; first compound 0.4 µM),relative viability ([5]; first compound 1.265 µM),relative viability ([1]; first compound 0.1265 µM),relative viability ([2]; first compound 0.1265 µM)
PC-3 [JPC-3],0.539,0.57,0.543,0.834,0.907,0.725,0.813,0.81,0.829,0.72,0.768,0.822,0.86,0.861,0.864,0.838,0.905,0.75,–,–
PC-14,0.516,0.485,0.318,0.226,0.17,0.178,0.738,0.968,0.572,0.475,0.866,0.978,0.875,0.582,0.976,0.988,1.08,0.795,0.498,0.211
RERF-LC-KJ,–,1.1,0.895,0.762,0.792,0.56,0.62,0.636,0.591,0.416,1.09,1.23,1.14,1.02,0.759,0.93,0.771,0.881,1.08,0.759
SK-LU-1,0.384,0.328,0.392,0.676,0.505,0.601,0.327,0.427,–,0.245,0.902,1.12,–,0.708,0.702,0.915,0.553,0.724,0.348,0.679
SW 1573,0.537,0.468,0.172,0.651,0.581,0.381,0.684,0.686,0.614,0.322,1.11,1.21,1.29,0.877,0.886,1.13,1.12,0.837,0.428,0.652
UMC-11,0.301,0.306,0.333,0.457,0.436,0.593,0.469,0.43,0.371,0.27,0.678,0.983,0.847,0.36,0.321,0.347,0.326,0.17,0.355,0.688
